Data taken from publication PMC9599461, “Stereoselectivity in the Membrane Transport of Phenylethylamine Derivatives by Human Monoamine Transporters and Organic Cation Transporters 1, 2, and 3” (Biomolecules, 2022).

How the values were obtained:
[1] = tested on: OCT2 A270S variant; assay: in vitro; conditions: human, Stereoselectivity OCT2_A270S, 100 μM racemic substance, two minutes, uptake ratio of enantiomers
[2] = target: T1, OCT2 (wild-type) (Homo sapiens, UniProt O15244); assay: Stereoselective uptake into OCT2 (wild-type)-overexpressing HEK293 cells; conditions: human, Stereoselectivity OCT2_WT, 100 μM racemic substance, two minutes; uptake ratio of enantiomers, given as for (R)
T1 sequence (O15244 1-555 S270A): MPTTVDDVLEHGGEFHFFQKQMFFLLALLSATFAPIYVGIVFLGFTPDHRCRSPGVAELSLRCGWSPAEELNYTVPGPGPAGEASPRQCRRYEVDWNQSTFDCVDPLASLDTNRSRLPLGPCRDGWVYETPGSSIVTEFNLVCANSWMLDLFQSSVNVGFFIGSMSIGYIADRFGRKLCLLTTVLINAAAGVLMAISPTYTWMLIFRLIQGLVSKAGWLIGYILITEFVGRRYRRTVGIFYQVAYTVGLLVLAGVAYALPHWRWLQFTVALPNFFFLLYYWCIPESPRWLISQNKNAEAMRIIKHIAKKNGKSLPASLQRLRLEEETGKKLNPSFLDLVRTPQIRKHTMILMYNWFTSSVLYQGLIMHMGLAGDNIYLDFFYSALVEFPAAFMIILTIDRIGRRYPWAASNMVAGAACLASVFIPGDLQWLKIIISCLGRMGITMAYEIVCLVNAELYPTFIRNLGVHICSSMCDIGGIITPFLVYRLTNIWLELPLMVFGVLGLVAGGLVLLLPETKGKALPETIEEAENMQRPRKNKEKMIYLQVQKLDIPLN
Protocol: (§1) All transport experiments were carried out in HEK293 cells stably overexpressing human MATs or OCTs. […] All cells were regularly cultivated in DMEM supplemented with 10% (v/v) FCS, penicillin (100 U/mL) and streptomycin (100 μg/mL)and kept in culture for no longer than 30 passages.
(§2) For the uptake experiments, 300,000 cells were plated in poly-D-lysine precoated 24-well plates 48 h ahead of the transport experiment. On the day of experiment, cells were initially washed once with 37 °C pre-warmed HBSS+ (Hanks buffered salt solution supplemented with 10 mM HEPES) and subsequently incubated with the substrates dissolved in pre-warmed HBSS+ for exactly two minutes. Incubation was stopped by adding ice-cold HBSS+ followed by two washing steps. After this, cells were lysed with 80% acetonitrile containing 10 ng/mL milnacipran as internal standard for high-performance liquid chromatography coupled to tandem mass spectrometry (HPLC-MS/MS) analysis. For every experiment, two additional wells per cell line were lysed using RIPA buffer for protein quantification. Total protein was quantified using the bicinchoninic acid assay [42]. This was later used for normalization of the uptake data.
(§3) Intracellularly accumulated test substances were quantified by HPLC-MS/MS analysis using a Shimadzu Nexera HPLC system with a SIL-30AC autosampler, a CTO-20AC column oven, a LC-30AD pump, and a CBM-20A controller (Shimadzu, Kyoto, Japan). Stereoselective chromatography was carried out on a [sequence] CBH HPLC column (100 × 3 mm inner dimension with 5 μM particle size; Sigma-Aldrich, Darmstadt, Germany) with a corresponding 10 × 3 mm guard column. Reversed phased chromatography was carried out using an ammonium acetate (NH4Ac) buffered aqueous mobile phase with isopropyl alcohol (IPA) as organic solvent. […] The order of elution of the enantiomers was obtained from available reference literature [43] or by applying enantiopure reference compounds to the chiral HPLC. […] However, in every other case where the order of elution was available, the (R)-enantiomer eluted first. Given the structural similarity of the investigated substances and the fact that separation was performed on the same column with almost identical mobile phases, we assume that this order of elution for our compound set is always the (R)- before the (S)-enantiomer.
(§4) Detection was performed with an API 4000 tandem mass spectrometer (AB SCIEX, Darmstadt, Germany) operating in multiple-reaction-monitoring mode. Quantification was performed using the Analyst 1.6.2 software (AB SCIEX, Darmstadt, Germany) and quantified by comparison to standard curves with known concentrations.
(§5) All uptake data were normalized to protein content to account for variation in the number of seeded sells. Transporter-mediated net uptake was calculated by subtracting uptake into empty vector-transfected control cells from uptake into transporter-transfected cells. Kinetic parameters were then determined after non-linear regression following the Michaelis–Menten equation (v = vmax × [S]/(Km + [S])) using GraphPad Prism (Version 5.01 for Windows, GraphPad Software, La Jolla, CA, USA). Vmax refers to the maximum transport velocity and Km is defined as the substance concentration required to reach half of vmax. The intrinsic clearance Clint was calculated as the quotient of vmax over Km.
(§6) HEK293 cells stably overexpressing wild-type or mutant OCT2 were incubated with 100 μM racemic substance for two minutes.

[3] = target: T2, SERT (Homo sapiens, UniProt P31645); assay: in vitro;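 note: uptake into HEK293 cells stably expressing human SERT over 2 min, enantiomers measured in cell lysate by chiral HPLC-MS/MS, normalized to total protein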
T2 sequence (P31645 whole entry): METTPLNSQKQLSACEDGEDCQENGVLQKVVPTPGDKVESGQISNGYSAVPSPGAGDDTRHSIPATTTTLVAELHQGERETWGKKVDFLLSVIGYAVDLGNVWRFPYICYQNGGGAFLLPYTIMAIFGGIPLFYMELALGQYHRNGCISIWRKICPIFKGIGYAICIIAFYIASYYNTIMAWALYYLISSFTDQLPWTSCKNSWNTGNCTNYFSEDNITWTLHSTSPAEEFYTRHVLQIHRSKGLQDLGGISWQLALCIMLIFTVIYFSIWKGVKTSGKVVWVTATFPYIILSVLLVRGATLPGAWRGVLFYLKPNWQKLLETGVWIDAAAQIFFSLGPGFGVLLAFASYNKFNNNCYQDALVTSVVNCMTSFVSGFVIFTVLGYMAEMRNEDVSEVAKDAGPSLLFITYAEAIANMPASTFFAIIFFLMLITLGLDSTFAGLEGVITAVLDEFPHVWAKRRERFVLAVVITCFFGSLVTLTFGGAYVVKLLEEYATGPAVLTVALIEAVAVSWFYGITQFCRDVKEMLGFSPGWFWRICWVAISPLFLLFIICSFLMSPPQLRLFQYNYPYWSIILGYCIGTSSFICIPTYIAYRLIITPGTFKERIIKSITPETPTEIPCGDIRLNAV

[4] = target: T2, SERT; assay: Stereoselective uptake into SERT-overexpressing HEK293 cells; conditions: for Saturable net uptake: result in words;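 for all read-outs here: uptake into HEK293 cells stably expressing human SERT over 2 min, enantiomers measured in cell lysate by chiral HPLC-MS/MS, normalized to total protein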
[5] = target: T3, OCT1 (Homo sapiens, UniProt O15245); assay: Stereoselective uptake into OCT1-overexpressing HEK293 cells; conditions: for selectivity ratio at 2 min: human; for Saturable net uptake: result in words;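 for all read-outs here: enantiomers quantified inside cells by chiral HPLC-MS/MS, uptake normalized to total protein from bicinchoninic acid assay, substrates applied in HBSS+ buffer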
T3 sequence (O15245 1-554): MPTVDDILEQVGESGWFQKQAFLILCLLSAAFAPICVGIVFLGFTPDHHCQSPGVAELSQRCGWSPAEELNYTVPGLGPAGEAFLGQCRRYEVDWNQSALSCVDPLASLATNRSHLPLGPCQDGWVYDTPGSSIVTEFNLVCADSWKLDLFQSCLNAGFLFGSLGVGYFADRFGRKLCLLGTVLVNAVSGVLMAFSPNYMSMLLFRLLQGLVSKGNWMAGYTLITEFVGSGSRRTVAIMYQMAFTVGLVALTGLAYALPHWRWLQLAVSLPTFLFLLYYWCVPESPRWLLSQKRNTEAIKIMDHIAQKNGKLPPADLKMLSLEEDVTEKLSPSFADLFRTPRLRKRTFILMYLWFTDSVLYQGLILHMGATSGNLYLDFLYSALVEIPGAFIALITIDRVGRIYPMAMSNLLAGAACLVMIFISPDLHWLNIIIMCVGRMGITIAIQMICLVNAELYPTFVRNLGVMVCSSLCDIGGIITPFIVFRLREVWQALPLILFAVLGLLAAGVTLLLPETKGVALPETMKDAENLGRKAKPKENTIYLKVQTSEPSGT

[6] = target: NET (Homo sapiens, UniProt P23975); assay: Stereoselective uptake into NET-overexpressing HEK293 cells; conditions: for Saturable net uptake: result in words;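 for all read-outs here: intracellular enantiomers quantified in cell lysates by chiral HPLC-MS/MS after a 2 min substrate incubation, with uptake normalized to total cellular protein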
Sequence of NET (P23975 whole entry): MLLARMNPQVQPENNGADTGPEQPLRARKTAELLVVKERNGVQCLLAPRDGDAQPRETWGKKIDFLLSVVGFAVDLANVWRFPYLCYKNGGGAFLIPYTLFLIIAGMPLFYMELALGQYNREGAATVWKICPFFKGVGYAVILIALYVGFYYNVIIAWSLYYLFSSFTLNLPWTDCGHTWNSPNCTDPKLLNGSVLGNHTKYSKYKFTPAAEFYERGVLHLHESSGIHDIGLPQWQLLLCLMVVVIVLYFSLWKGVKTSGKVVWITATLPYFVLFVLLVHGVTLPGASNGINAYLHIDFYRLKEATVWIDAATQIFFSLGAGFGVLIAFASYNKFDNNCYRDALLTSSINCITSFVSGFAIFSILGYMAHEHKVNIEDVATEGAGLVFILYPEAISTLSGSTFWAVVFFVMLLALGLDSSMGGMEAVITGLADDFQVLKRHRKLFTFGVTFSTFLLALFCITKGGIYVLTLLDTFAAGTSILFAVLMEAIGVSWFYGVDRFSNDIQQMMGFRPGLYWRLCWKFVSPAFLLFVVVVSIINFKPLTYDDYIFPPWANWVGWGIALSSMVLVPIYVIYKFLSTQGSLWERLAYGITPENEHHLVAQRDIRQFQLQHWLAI

[7] = target: DAT (Homo sapiens, UniProt Q01959); assay: Stereoselective uptake into DAT-overexpressing HEK293 cells; conditions: for Saturable net uptake: result in words;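 for all read-outs here: intracellular accumulation measured by chiral HPLC-MS/MS in stably transfected HEK293 cells, normalized to total protein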
Sequence of DAT (Q01959 whole entry): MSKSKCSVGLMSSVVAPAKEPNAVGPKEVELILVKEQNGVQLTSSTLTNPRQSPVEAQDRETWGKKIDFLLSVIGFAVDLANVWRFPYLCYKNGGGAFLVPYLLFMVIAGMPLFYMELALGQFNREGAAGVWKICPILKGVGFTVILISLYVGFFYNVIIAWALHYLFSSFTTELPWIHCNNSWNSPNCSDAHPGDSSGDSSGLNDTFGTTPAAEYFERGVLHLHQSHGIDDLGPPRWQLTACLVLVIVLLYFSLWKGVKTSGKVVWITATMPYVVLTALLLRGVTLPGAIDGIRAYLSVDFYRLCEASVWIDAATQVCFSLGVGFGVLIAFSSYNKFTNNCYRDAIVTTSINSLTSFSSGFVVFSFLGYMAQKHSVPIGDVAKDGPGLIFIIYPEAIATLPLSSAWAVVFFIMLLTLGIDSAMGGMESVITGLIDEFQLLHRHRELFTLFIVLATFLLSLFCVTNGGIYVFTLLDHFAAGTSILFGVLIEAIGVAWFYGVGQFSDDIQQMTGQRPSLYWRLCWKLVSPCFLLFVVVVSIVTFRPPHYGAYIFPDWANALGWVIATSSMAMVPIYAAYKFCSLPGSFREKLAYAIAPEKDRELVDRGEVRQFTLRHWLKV

[8] = target: T4, OCT3 (Homo sapiens, UniProt O75751); assay: Stereoselective uptake into OCT3-overexpressing HEK293 cells; conditions: for Saturable net uptake: result in words;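 for all read-outs here: intracellular accumulation in HEK293 cells measured by chiral HPLC-MS/MS after a 2 min substrate exposure at 37 °C, uptake normalized to total protein (bicinchoninic acid assay)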
T4 sequence (O75751 1-556): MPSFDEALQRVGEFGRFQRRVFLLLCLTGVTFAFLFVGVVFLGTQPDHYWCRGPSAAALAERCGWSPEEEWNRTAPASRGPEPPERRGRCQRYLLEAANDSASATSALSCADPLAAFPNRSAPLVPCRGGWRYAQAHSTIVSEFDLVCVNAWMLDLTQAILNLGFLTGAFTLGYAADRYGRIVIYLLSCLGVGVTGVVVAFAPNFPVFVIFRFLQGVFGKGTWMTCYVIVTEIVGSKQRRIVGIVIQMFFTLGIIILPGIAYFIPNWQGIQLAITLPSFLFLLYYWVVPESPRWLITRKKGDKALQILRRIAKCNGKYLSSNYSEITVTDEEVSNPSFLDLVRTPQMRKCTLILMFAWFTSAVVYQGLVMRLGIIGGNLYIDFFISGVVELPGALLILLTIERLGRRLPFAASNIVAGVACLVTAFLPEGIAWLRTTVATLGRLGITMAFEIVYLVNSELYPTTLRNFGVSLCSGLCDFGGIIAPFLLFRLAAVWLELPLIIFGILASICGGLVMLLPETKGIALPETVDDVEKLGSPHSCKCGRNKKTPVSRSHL
Protocol: as §1, §2
Intracellularly accumulated test substances were quantified by HPLC-MS/MS analysis using a Shimadzu Nexera HPLC system with a SIL-30AC autosampler, a CTO-20AC column oven, a LC-30AD pump, and a CBM-20A controller (Shimadzu, Kyoto, Japan). Stereoselective chromatography was carried out on a [sequence] CBH HPLC column (100 × 3 mm inner dimension with 5 μM particle size; Sigma-Aldrich, Darmstadt, Germany) with a corresponding 10 × 3 mm guard column. Reversed phased chromatography was carried out using an ammonium acetate (NH4Ac) buffered aqueous mobile phase with isopropyl alcohol (IPA) as organic solvent. […] The order of elution of the enantiomers was obtained from available reference literature [43] or by applying enantiopure reference compounds to the chiral HPLC. […] Given the structural similarity of the investigated substances and the fact that separation was performed on the same column with almost identical mobile phases, we assume that this order of elution for our compound set is always the (R)- before the (S)-enantiomer.
as §4, §5

[9] = tested on: OCT2 wild-type versus A270S variant; assay: in vitro; conditions: human, Transporter selectivity, OCT2 wild-type versus A270S, 100 μM racemic substance, two minutes
[10] = target: T5, OCT2 (Homo sapiens, UniProt O15244); assay: Stereoselective uptake into OCT2 (wild-type)-overexpressing HEK293 cells; conditions: OCT2; for Clint ± SEM: quotient of vmax over Km; for selectivity ratio at 2 min: human, ratio between enantiomers
T5 sequence (O15244 1-555 S270A): T1 sequence (O15244 1-555 S270A)
Protocol: as §1, §2, §3, §4, §5, §6

[11] = Stereoselectivity Vmax, given as for (R) or for 1

SMILES: NCC(O)c1ccccc1 (stereo not drawn) [Bisnorephedrine]
- selectivity ratio at 2 min, 100 μM ([1]; given as for (S)): 1.09
- selectivity ratio at 2 min, 100 μM [2]: 1.1

SMILES: COc1cc(C(O)CN)ccc1O (stereo not drawn) [Normetanephrine]
- selectivity ratio at 2 min, 100 μM ([1]; given as for (R)): 1.7
- selectivity ratio at 2 min, 100 μM [2]: 1.91

SMILES: CNC[C@H](O)c1cccc(O)c1 [(R)-Phenylephrine]
- selectivity ratio [3]: 2.82
- Stereoselectivity Km [4]: 1.89 fold
- Stereoselectivity Vmax [4]: 1.49 fold
- Vmax ± SEM [4]: 356
- Clint ± SEM ([4]; SERT, quotient of vmax over Km): 17.2 mL × g Protein^−1 × min^−1
- Km ([4]; read-out: Km ± SEM, HEK293 cells overexpressing human SERT, racemic substrate, two minutes, net uptake minus empty vector control): 328 µM
- Clint ± SEM ([5]; OCT1, quotient of vmax over Km): 9.79 mL × g Protein^−1 × min^−1
- selectivity ratio at 2 min ([5]; Stereoselectivity ClInt): 1.11
- selectivity ratio at 2 min ([5]; Stereoselectivity Km, OCT1, ratio between enantiomers, given as for (S) or for 2 (second-eluting)): 1.02
- selectivity ratio at 2 min ([5]; Stereoselectivity Vmax, OCT1, ratio between enantiomers, given as for (R) or for 1): 1.08
- Vmax ± SEM ([6]; HEK293 cells overexpressing human NET, racemic substrate, two minutes, net uptake): 392 pmol × mg Protein^−1 × min^−1
- Clint ± SEM ([6]; NET, quotient of vmax over Km): 75.5 mL × g Protein^−1 × min^−1
- Stereoselectivity Vmax ([6]; NET, ratio between enantiomers, given as for (R) or for 1): 1.79 fold
- selectivity ratio at 2 min ([6]; human): 1.43
- Km ([6]; read-out: Km ± SEM, HEK293 cells overexpressing human NET, racemic substrate, two minutes, net uptake minus empty vector control): 5.12 µM
- Clint ± SEM ([7]; DAT, quotient of vmax over Km): 17.2 mL × g Protein^−1 × min^−1
- Stereoselectivity Vmax ([7]; DAT, ratio between enantiomers, given as for (R) or for 1): 1.56 fold
- Stereoselectivity Km ([7]; DAT, ratio between enantiomers, given as for (R) or for 1 (first-eluting)): 1.06 fold
- Vmax ± SEM ([7]; HEK293 cells overexpressing human DAT, racemic substrate, two minutes, net uptake): 613 pmol × mg Protein^−1 × min^−1
- selectivity ratio at 2 min ([7]; human): 1.48
- Km ([7]; read-out: Km ± SEM, HEK293 cells overexpressing human DAT, racemic substrate, two minutes, net uptake minus empty vector control): 35.6 µM
- Clint ± SEM ([8]; OCT3, quotient of vmax over Km): 11.8 mL × g Protein^−1 × min^−1
- Stereoselectivity Vmax ([8]; OCT3, ratio between enantiomers, given as for (R) or for 1): 3.33 fold
- Stereoselectivity Km ([8]; OCT3, ratio between enantiomers, given as for (R) or for 1 (first-eluting)): 1.19 fold
- selectivity ratio at 2 min ([8]; human): 2.79
- selectivity ratio at 2 min, 100 μM ([9]; given as for WT): 1.27
- Clint ± SEM [10]: 29.5 mL × g Protein^−1 × min^−1
- selectivity ratio at 2 min ([10]; Stereoselectivity ClInt, given as for (S) or for 2): 1.02
- selectivity ratio at 2 min ([10]; Stereoselectivity Km, given as for (R) or for 1 (first-eluting)): 1.89
- selectivity ratio at 2 min [10, 11]: 2.04

SMILES: CNCC(O)c1ccccc1 (stereo not drawn) [Halostachine-2, Halostachine]
- Saturable net uptake ([4]; SERT): No saturable net uptake
- Saturable net uptake ([5]; OCT1): No saturable net uptake
- Saturable net uptake ([6]; NET): No saturable net uptake
- Saturable net uptake ([7]; DAT): No saturable net uptake
- Saturable net uptake ([8]; OCT3): No saturable net uptake
- selectivity ratio at 2 min, 100 μM ([9]; given as for A270S): 1.05
- Clint ± SEM [10]: 13.6 mL × g Protein^−1 × min^−1

SMILES: CNCC(O)c1ccccc1 (stereo not drawn) [Halostachine-1, Halostachine]
- Saturable net uptake ([4]; SERT): No saturable net uptake
- Saturable net uptake ([5]; OCT1): No saturable net uptake
- Saturable net uptake ([6]; NET): No saturable net uptake
- Saturable net uptake ([7]; DAT): No saturable net uptake
- Saturable net uptake ([8]; OCT3): No saturable net uptake
- selectivity ratio at 2 min, 100 μM ([9]; given as for WT): 1.02
- Clint ± SEM [10]: 25.7 mL × g Protein^−1 × min^−1
- selectivity ratio at 2 min ([10]; Stereoselectivity ClInt, given as for (R) or for 1): 1.89
- selectivity ratio at 2 min ([10]; Stereoselectivity Km, given as for (S) or for 2 (second-eluting)): 1.5
- selectivity ratio at 2 min [10, 11]: 1.26
